The source of these data is ChEMBL document CHEMBL3091280, “Synthesis and Cytotoxicity of Semisynthetic Withalongolide A Analogues” (ACS Med Chem Lett, 2013).

A word on the IC50: it is the concentration at which inhibition is half-maximal. Read a low IC50 as greater potency in that assay.

One assay has as its system SK-MEL-28. Put plainly: Cytotoxicity against human SK-MEL-28 cells after 72 hrs by MTS assay. The settings on record: SK-MEL-28, 72 h. It is filed as functional, cell-based. On the technique in general: Tetrazolium assays rely on reduction of a dye to a coloured formazan, in cell work by metabolically active cells.
The nature of assay [1]: Cytotoxicity against human DRO 81-1 cells after 72 hrs by MTS assay. It is filed as functional, cell-based.
The subject of a further assay is MRC5. The experiment in a line: Cytotoxicity against human MRC5 cells after 72 hrs by MTS assay. To be noted: MRC5, 72 h. The format is cell-based.
The nature of assay [2]: Cytotoxicity against human JMAR cells after 72 hrs by MTS assay. It is filed as functional, cell-based.
In another assay the test system is MDA-MB-231. Put plainly: Cytotoxicity against human MDA-MB-231 cells after 72 hrs by MTS assay. To be noted: MDA-MB-231, 72 h. It is filed as functional, cell-based.

Consider `CC1=C(CO)C(=O)O[C@@H]([C@@H](C)[C@H]2CC[C@H]3[C@@H]4C[C@H]5O[C@]56[C@@H](O)C=CC(=O)[C@]6(CO)[C@H]4CC[C@]23C)C1`, for which the IC50 turned out to be 1600 nM with SK-MEL-28; 1700 nM in assay [1]; 5300 nM with MRC5; 3100 nM in assay [2]; 1500 nM in the assay on MDA-MB-231.
For `CC(=O)OCC1=C(C)C[C@H]([C@@H](C)[C@H]2CC[C@H]3[C@@H]4C[C@H]5O[C@]56[C@@H](OC(C)=O)C=CC(=O)[C@]6(COC(C)=O)[C@H]4CC[C@]23C)OC1=O` the same measures were 110 nM, 110 nM, 310 nM, 655 nM and 655 nM.
On the same counts, the results for `CC(=O)OCC1=C(C)C[C@H]([C@@H](C)[C@H]2CC[C@H]3[C@@H]4C[C@H]5O[C@]56[C@@H](OC(C)=O)C=CC(=O)[C@]6(CO)[C@H]4CC[C@]23C)OC1=O` are 170 nM, 58 nM, 295 nM, 600 nM and 635 nM.
Regarding `CC(=O)OC[C@]12C(=O)C=C[C@H](OC(=O)c3ccc(Cl)cc3)[C@]13O[C@@H]3C[C@H]1[C@@H]3CC[C@H]([C@H](C)[C@H]4CC(C)=C(COC(=O)c5ccc(Cl)cc5)C(=O)O4)[C@@]3(C)CC[C@@H]12`, the IC50 (in the assay on SK-MEL-28; in assay [1]; in the assay with MRC5; in assay [2]; in the assay with MDA-MB-231) was at least 10000 nM each time.
For the compound `CC(=O)OCC1=C(C)C[C@H]([C@@H](C)[C@H]2CC[C@H]3[C@@H]4C[C@H]5O[C@]56[C@@H]5C=CC(=O)[C@]6(COC(=O)CC/C=C/CCC(=O)O5)[C@H]4CC[C@]23C)OC1=O`, the IC50 is 205 nM in the assay on SK-MEL-28; 225 nM in assay [1]; 360 nM in the assay on MRC5; 965 nM in assay [2]; 245 nM in the assay on MDA-MB-231.
For `C=CCCC(=O)OC[C@]12C(=O)C=C[C@H](OC(=O)CCC=C)[C@]13O[C@@H]3C[C@H]1[C@@H]3CC[C@H]([C@H](C)[C@H]4CC(C)=C(COC(C)=O)C(=O)O4)[C@@]3(C)CC[C@@H]12` the same measures were 470 nM, 580 nM, 865 nM, 1440 nM and 625 nM.
For the compound `CC(=O)OCC1=C(C)C[C@H]([C@@H](C)[C@H]2CC[C@H]3[C@@H]4C[C@H]5O[C@]56[C@@H](OC(C)=O)C=C(I)C(=O)[C@]6(COC(C)=O)[C@H]4CC[C@]23C)OC1=O`, the IC50 in the assay on SK-MEL-28 was 275 nM; in assay [1] it was 115 nM; in the assay with MRC5 it was 475 nM; in assay [2], 830 nM; in the assay with MDA-MB-231, 210 nM.
For `CC1=C(CO)C(=O)O[C@@H]([C@@H](C)[C@H]2CC[C@H]3[C@@H]4C[C@H]5O[C@]56[C@@H](O)C=C(I)C(=O)[C@]6(CO)[C@H]4CC[C@]23C)C1` the same measures were 9110 nM, 5250 nM, 9100 nM, over 10000 nM and over 10000 nM.
On the same counts, the results for `CC(=O)OCC1=C(C)C[C@H]([C@@H](C)[C@H]2CC[C@H]3[C@@H]4C[C@@H](OC(C)=O)C5=CC=CC(=O)[C@]5(COC(C)=O)[C@H]4CC[C@]23C)OC1=O` are at least 10000 nM, at least 10000 nM, at least 10000 nM, at least 10000 nM and at least 10000 nM.
For `CC(=O)OCC1=C(C)C[C@H]([C@@H](C)[C@H]2CC[C@H]3[C@@H]4C[C@@H](O)[C@@]5(Cl)CC=CC(=O)[C@]5(COC(C)=O)[C@H]4CC[C@]23C)OC1=O` the same measures were 1170 nM, 1350 nM, 3150 nM, 2160 nM and 800 nM.
Regarding `CC(=O)OCC1=C(C)C[C@H]([C@@H](C)[C@H]2CC[C@H]3[C@@H]4C[C@@H](O)C5=CC=CC(=O)[C@]5(COC(C)=O)[C@H]4CC[C@]23C)OC1=O`, the IC50 (with SK-MEL-28; in assay [1]; with MRC5; in assay [2]; in the assay on MDA-MB-231) was at least 10000 nM each time.
`CC(=O)OCC1=C(C)C[C@H]([C@@H](C)[C@H]2CC[C@H]3[C@@H]4C[C@H]5O[C@]56CC=CC(=O)[C@]6(COC(C)=O)[C@H]4CC[C@]23C)OC1=O`: the IC50 with SK-MEL-28 is 710 nM; in assay [1], 1100 nM; with MRC5 it was 2050 nM; in assay [2], 1220 nM; in the assay with MDA-MB-231, 790 nM.
Regarding `CC(=O)OCC1=C(C)C[C@H]([C@@H](C)[C@H]2CC[C@H]3[C@@H]4C[C@H]5O[C@]56[C@@H](OC(=O)N(C)C)C=CC(=O)[C@]6(COC(C)=O)[C@H]4CC[C@]23C)OC1=O`, the IC50 with SK-MEL-28 stood at 205 nM; in assay [1], 86.5 nM; with MRC5, 510 nM; in assay [2], 970 nM; in the assay on MDA-MB-231, 175 nM.
For `CC1=C(CO)C(=O)O[C@@H]([C@@H](C)[C@H]2CC[C@H]3[C@@H]4C[C@H]5O[C@]56[C@@H](OC(=O)N(C)C)C=CC(=O)[C@]6(CO)[C@H]4CC[C@]23C)C1`, the IC50 in the assay on SK-MEL-28 came to 515 nM; in assay [1], 585 nM; with MRC5 it was 1750 nM; in assay [2] it was 2090 nM; in the assay on MDA-MB-231 it was 610 nM.
For the compound `CC1=C(COC(=O)c2ccc(Cl)cc2)C(=O)O[C@@H]([C@@H](C)[C@H]2CC[C@H]3[C@@H]4C[C@H]5O[C@]56[C@@H](OC(=O)c5ccc(Cl)cc5)C=CC(=O)[C@]6(COC(=O)c5ccc(Cl)cc5)[C@H]4CC[C@]23C)C1`, the IC50 (with SK-MEL-28; in assay [1]; in the assay with MRC5; in assay [2]; in the assay on MDA-MB-231) was at least 10000 nM each time.
Turning to `CC1=C(COC(=O)c2ccc(Cl)cc2)C(=O)O[C@@H]([C@@H](C)[C@H]2CC[C@H]3[C@@H]4C[C@H]5O[C@]56[C@@H](OC(=O)c5ccc(Cl)cc5)C=CC(=O)[C@]6(CO)[C@H]4CC[C@]23C)C1`, the IC50 (with SK-MEL-28; in assay [1]; with MRC5; in assay [2]; in the assay on MDA-MB-231) was at least 10000 nM throughout.
Regarding `CC1=C(COC(=O)c2ccc(Cl)cc2)C(=O)O[C@@H]([C@@H](C)[C@H]2CC[C@H]3[C@@H]4C[C@H]5O[C@]56[C@@H](O)C=CC(=O)[C@]6(COC(=O)c5ccc(Cl)cc5)[C@H]4CC[C@]23C)C1`, the IC50 amounted to 1110 nM with SK-MEL-28; 1900 nM in assay [1]; 2350 nM in the assay on MRC5; 4640 nM in assay [2]; 2620 nM with MDA-MB-231.
For `CC1=C(CO)C(=O)O[C@@H]([C@@H](C)[C@H]2CC[C@H]3[C@@H]4C[C@H]5O[C@]56[C@@H](OC(=O)c5ccc(Cl)cc5)C=CC(=O)[C@]6(CO)[C@H]4CC[C@]23C)C1` the same measures were 2250 nM, 1850 nM, 2550 nM, 1720 nM and 1400 nM.
On the same counts, the results for `CCC(=O)OCC1=C(C)C[C@H]([C@@H](C)[C@H]2CC[C@H]3[C@@H]4C[C@H]5O[C@]56[C@@H](OC(=O)CC)C=CC(=O)[C@]6(COC(=O)CC)[C@H]4CC[C@]23C)OC1=O` are 285 nM, 130 nM, 615 nM, 1000 nM and 365 nM.
For `CC(=O)OCC1=C(C)C[C@H]([C@@H](C)[C@H]2CC[C@H]3[C@@H]4C[C@H]5O[C@]56[C@@H](O)C=CC(=O)[C@]6(COC(C)=O)[C@H]4CC[C@]23C)OC1=O` the same measures were 230 nM, 155 nM, 490 nM, 515 nM and 205 nM.
With `CC(=O)O[C@H]1C=CC(=O)[C@]2(CO)[C@H]3CC[C@]4(C)[C@@H]([C@H](C)[C@H]5CC(C)=C(CO)C(=O)O5)CC[C@H]4[C@@H]3C[C@H]3O[C@]132`, the IC50 amounted to 1220 nM in the assay with SK-MEL-28; 570 nM in assay [1]; 1200 nM in the assay on MRC5; 2480 nM in assay [2]; 890 nM in the assay with MDA-MB-231.
Turning to `CC(=O)OC[C@]12C(=O)C=C[C@H](O)[C@]13O[C@@H]3C[C@H]1[C@@H]3CC[C@H]([C@H](C)[C@H]4CC(C)=C(CO)C(=O)O4)[C@@]3(C)CC[C@@H]12`, the IC50 amounted to 1230 nM in the assay with SK-MEL-28; 780 nM in assay [1]; 1800 nM with MRC5; 3060 nM in assay [2]; 1150 nM in the assay with MDA-MB-231.
As to `CC(=O)OCC1=C(C)C[C@H]([C@@H](C)[C@H]2CC[C@H]3[C@@H]4C[C@H]5O[C@]56[C@@H](O)C=CC(=O)[C@]6(CO)[C@H]4CC[C@]23C)OC1=O`, the IC50 was 705 nM in the assay with SK-MEL-28; 1050 nM in assay [1]; 2300 nM in the assay on MRC5; 1220 nM in assay [2]; 415 nM in the assay on MDA-MB-231.
